Results reported in paper PMC10247784, “Physiological activation of human and mouse bitter taste receptors by bile acids” (Communications Biology, 2023).
“And” between values parts separate entries of the source, which are not always exact repeats. Equal values may be shown once.

Molecular target: T1, human TAS2R1 (Homo sapiens, UniProt Q9NYW7)
T1 construct: expressed in transfected cells; host or cells: HEK293T-Gα16gust44
T1 sequence (Q9NYW7 1-299): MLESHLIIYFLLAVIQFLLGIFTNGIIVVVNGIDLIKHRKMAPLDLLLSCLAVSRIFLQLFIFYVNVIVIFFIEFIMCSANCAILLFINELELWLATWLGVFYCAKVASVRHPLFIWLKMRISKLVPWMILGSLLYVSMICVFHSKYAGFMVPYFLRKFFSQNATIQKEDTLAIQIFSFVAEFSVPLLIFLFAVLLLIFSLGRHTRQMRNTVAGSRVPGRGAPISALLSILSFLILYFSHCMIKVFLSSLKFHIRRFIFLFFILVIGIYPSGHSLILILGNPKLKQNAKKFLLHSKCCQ
Test: Calcium imaging assay (FLIPR), HEK293T-Gα16gust44 cells transfected with human TAS2R1
Assay type: cell-based
In short: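 Bile acids from DMSO stocks are applied to dye-loaded cells one day after transient receptor transfection, and calcium-dependent fluorescence is recorded. Maximum signal is standardized to basal and normalized to buffer-only wells, with empty-vector signal subtracted.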

With `C[C@H](CCC(=O)O)[C@H]1CC[C@H]2[C@@H]3[C@H](O)C[C@@H]4C[C@H](O)CC[C@]4(C)[C@H]3C[C@H](O)[C@]12C` [Cholic Acid, cholic acid] the “Efficacy = maximal amplitude (ΔF/F)” value (TAS2R1, bile acids, mean) was 0.1303, the “Efficacy (maximal amplitude ΔF/F), individual data points” value (TAS2R1, bile acids, single replicates, listed as CA) was 0.1237 and 0.1261 and 0.1411 and the RLU (Time 0 s) was 0 RLU. It also gave an RLU (Time 2.015 s) of -18.7915 RLU, an RLU (Time 4.015 s) of -20.7803 RLU and an RLU (Time 6.015 s) of -30.3104 RLU. It also gave an RLU (Time 8.015 s) of -41.5185 RLU, an RLU (Time 12.015 s) of -39.0663 RLU and an RLU (Time 14.015 s) of -19.7859 RLU. The RLU (Time 16.015 s) was -20.0825 RLU, the RLU (Time 18.015 s) was -33.1938 RLU and the RLU (Time 18.796 s) was -13.8993 RLU. For the same molecule, the RLU (Time 20.796 s) was -32.113 RLU, the RLU (Time 22.796 s) was 0.5227 RLU and the RLU (Time 24.796 s) was 72.3168 RLU. The RLU (Time 26.796 s) was 179.01 RLU, the RLU (Time 28.796 s) was 273.224 RLU and the RLU (Time 30.796 s) was 414.499 RLU. It also gave an RLU (Time 32.796 s) of 487.46 RLU, an RLU (Time 34.796 s) of 561.258 RLU and an RLU (Time 36.796 s) of 600.729 RLU. For the same molecule, the RLU (Time 38.796 s) was 652.414 RLU, the RLU (Time 40.796 s) was 646.063 RLU and the RLU (Time 42.796 s) was 688.029 RLU. It also gave an RLU (Time 44.796 s) of 718.237 RLU, an RLU (Time 46.796 s) of 709.989 RLU and an RLU (Time 48.796 s) of 747.058 RLU. For the same molecule, the RLU (Time 50.796 s) was 725.497 RLU, the RLU (Time 52.796 s) was 721.254 RLU and the RLU (Time 54.796 s) was 750.511 RLU. For the same molecule, the RLU (Time 56.796 s) was 763.129 RLU, the RLU (Time 58.796 s) was 754.05 RLU and the RLU (Time 60.796 s) was 736.769 RLU. The RLU (Time 62.796 s) was 752.117 RLU, the RLU (Time 64.796 s) was 729.251 RLU and the RLU (Time 66.796 s) was 754.307 RLU. For the same molecule, the RLU (Time 68.796 s) was 748.849 RLU, the RLU (Time 70.796 s) was 729.014 RLU and the RLU (Time 72.796 s) was 724.252 RLU. The RLU (Time 74.796 s) was 721.996 RLU, the RLU (Time 76.796 s) was 719.984 RLU and the RLU (Time 78.796 s) was 701.138 RLU. The RLU (Time 80.796 s) was 695.956 RLU, the RLU (Time 82.796 s) was 687.252 RLU and the RLU (Time 84.796 s) was 702.818 RLU. For the same molecule, the RLU (Time 86.796 s) was 660.013 RLU, the RLU (Time 88.796 s) was 675.614 RLU and the RLU (Time 90.796 s) was 671.255 RLU. The RLU (Time 92.796 s) was 645.369 RLU, the RLU (Time 94.796 s) was 658.13 RLU and the RLU (Time 96.796 s) was 614.664 RLU. For the same molecule, the RLU (Time 98.796 s) was 601.791 RLU, the RLU (Time 100.796 s) was 605.799 RLU and the RLU (Time 102.796 s) was 574.755 RLU. For the same molecule, the RLU (Time 104.796 s) was 579.697 RLU, the RLU (Time 106.796 s) was 554.874 RLU and the RLU (Time 108.796 s) was 536.028 RLU. For the same molecule, the RLU (Time 110.796 s) was 503.66 RLU, the RLU (Time 112.796 s) was 530.288 RLU and the RLU (Time 114.796 s) was 510.693 RLU. The RLU (Time 116.796 s) was 515.676 RLU, the RLU (Time 118.796 s) was 477.82 RLU and the RLU (Time 120.796 s) was 483.731 RLU. For the same molecule, the RLU (Time 122.796 s) was 479.051 RLU, the RLU (Time 124.796 s) was 471.711 RLU and the RLU (Time 126.796 s) was 440.735 RLU. It also gave an RLU (Time 128.796 s) of 427.776 RLU, an RLU (Time 130.796 s) of 428.214 RLU and an RLU (Time 132.796 s) of 399.927 RLU. It also gave an RLU (Time 134.796 s) of 369.335 RLU, an RLU (Time 136.796 s) of 379.68 RLU and an RLU (Time 137.562 s) of 368.206 RLU. The RLU (Time 143.562 s) was 326.335 RLU, the RLU (Time 149.562 s) was 297.638 RLU and the RLU (Time 155.562 s) was 268.743 RLU. For the same molecule, the RLU (Time 161.562 s) was 228.213 RLU, the RLU (Time 167.562 s) was 217.461 RLU and the RLU (Time 173.562 s) was 182.798 RLU. The RLU (Time 179.562 s) was 176.247 RLU, the RLU (Time 185.562 s) was 110.643 RLU and the RLU (Time 191.562 s) was 119.586 RLU. For the same molecule, the RLU (Time 197.562 s) was 108.976 RLU, the RLU (Time 203.562 s) was 106.514 RLU and the RLU (Time 209.562 s) was 78.0739 RLU. It also gave an RLU (Time 215.562 s) of 68.108 RLU, an RLU (Time 221.562 s) of 58.6538 RLU and an RLU (Time 227.562 s) of 6.904 RLU. It also gave an RLU (Time 233.562 s) of -20.3665 RLU, an RLU (Time 239.562 s) of 5.663 RLU and an RLU (Time 245.562 s) of 6.786 RLU. The RLU (Time 293.562 s) was -10.9022 RLU, the RLU (Time 299.562 s) was -34.1549 RLU and the RLU (calcium trace, sheet TAS2R1, Time 305.562 s) was -13.9937 RLU. It also gave an RLU (calcium trace, sheet TAS2R1, Time 311.562 s) of -29.8879 RLU, an RLU (calcium trace, sheet TAS2R1, Time 317.562 s) of -12.8001 RLU and an RLU (calcium trace, sheet TAS2R1, Time 323.562 s) of -27.2317 RLU. For the same molecule, the RLU (calcium trace, sheet TAS2R1, Time 329.562 s) was -32.4678 RLU, the RLU (calcium trace, sheet TAS2R1, Time 335.562 s) was -20.5128 RLU and the RLU (calcium trace, sheet TAS2R1, Time 341.562 s) was -18.5874 RLU. It also gave an RLU (calcium trace, sheet TAS2R1, Time 347.562 s) of -51.1709 RLU, an RLU (calcium trace, sheet TAS2R1, Time 353.562 s) of -49.428 RLU and an RLU (calcium trace, sheet TAS2R1, Time 359.562 s) of -15.7961 RLU. For the same molecule, the “Activation threshold concentration TAS2R1” value (lowest concentration with significantly increased fluorescence vs empty vector (p < 0.01)) was 100 µM and 100.00 µM.
